Results reported in the NIST ThermoML archive (doi:10.1016/j.jct.2009.11.010).

Tests used:
[1] = for vapor or sublimation pressure: Inclined piston gauge
[2] = Molar enthalpy of transition or fusion; conditions: Crystal; Adiabatic calorimetry
[3] = molar heat capacity at constant pressure; conditions: 101.33 kPa, Vacuum adiabatic calorimetry
[4] = molar heat capacity at saturation pressure; conditions: Vacuum adiabatic calorimetry

c1ccc2nc3ccccc3nc2c1 [phenazine]
Conditions	Triple point temperature [K]	molar heat capacity [J/K/mol]	molar heat capacity at constant pressure [J/K/mol]	vapor or sublimation pressure [kPa]
[1], 389.95 K, Crystal	–	–	–	0.0331
[1], 400.01 K, Crystal	–	–	–	0.0682
[1], 410 K, Crystal	–	–	–	0.1346
[1], 420 K, Crystal	–	–	–	0.2572
[1], 430 K, Crystal	–	–	–	0.476
[1], 449.96 K, Liquid	–	–	–	1.444
[1], 454.97 K, Liquid	–	–	–	1.754
[1], 460.06 K, Liquid	–	–	–	2.127
[1], 464.96 K, Liquid	–	–	–	2.548
[1], 469.96 K, Liquid	–	–	–	3.05
[1], 471.96 K, Liquid	–	–	–	3.273
[1], Crystal, Adiabatic calorimetry	447.91	–	–	–
[3], 5 K, Crystal	–	–	0.38	–
[3], 10 K, Crystal	–	–	2.76	–
[3], 20 K, Crystal	–	–	13.34	–
[3], 30 K, Crystal	–	–	25.08	–
[3], 40 K, Crystal	–	–	35.19	–
[3], 50 K, Crystal	–	–	43.5	–
[3], 60 K, Crystal	–	–	50.49	–
[3], 70 K, Crystal	–	–	56.66	–
[3], 80 K, Crystal	–	–	62.3	–
[3], 90 K, Crystal	–	–	67.8	–
[3], 100 K, Crystal	–	–	73.23	–
[3], 120 K, Crystal	–	–	84.23	–
[3], 140 K, Crystal	–	–	95.77	–
[3], 160 K, Crystal	–	–	107.87	–
[3], 180 K, Crystal	–	–	120.51	–
[3], 200 K, Crystal	–	–	133.66	–
[3], 220 K, Crystal	–	–	147.13	–
[3], 240 K, Crystal	–	–	160.98	–
[3], 260 K, Crystal	–	–	175.01	–
[3], 280 K, Crystal	–	–	188.99	–
[3], 298.15 K, Crystal	–	–	201.63	–
[3], 300 K, Crystal	–	–	202.93	–
[3], 320 K, Crystal	–	–	216.89	–
[3], 340 K, Crystal	–	–	230.56	–
[3], 360 K, Crystal	–	–	244.06	–
[3], 380 K, Crystal	–	–	257.36	–
[3], 400 K, Crystal	–	–	270.46	–
[3], 420 K, Crystal	–	–	283.41	–
[3], 440 K, Crystal	–	–	296.01	–
[3], 447.91 K, Crystal	–	–	300.87	–
[3], 447.91 K, Liquid	–	–	331.96	–
[3], 460 K, Liquid	–	–	337	–
[3], 480 K, Liquid	–	–	345.14	–
[3], 500 K, Liquid	–	–	353.07	–
[3], 520 K, Liquid	–	–	360.67	–
[4], 6.135 K, Crystal	–	0.71	–	–
[4], 7.091 K, Crystal	–	1.09	–	–
[4], 8.146 K, Crystal	–	1.57	–	–
[4], 9.073 K, Crystal	–	2.09	–	–
[4], 9.999 K, Crystal	–	2.77	–	–
[4], 11.1 K, Crystal	–	3.68	–	–
[4], 12.32 K, Crystal	–	4.78	–	–
[4], 13.68 K, Crystal	–	6.14	–	–
[4], 15.19 K, Crystal	–	7.78	–	–
[4], 16.85 K, Crystal	–	9.645	–	–
[4], 18.69 K, Crystal	–	11.81	–	–
[4], 20.75 K, Crystal	–	14.23	–	–
[4], 23.04 K, Crystal	–	16.99	–	–
[4], 25.58 K, Crystal	–	20	–	–
[4], 28.4 K, Crystal	–	23.28	–	–
[4], 31.54 K, Crystal	–	26.77	–	–
[4], 35.04 K, Crystal	–	30.43	–	–
[4], 38.95 K, Crystal	–	34.21	–	–
[4], 43.3 K, Crystal	–	38.1	–	–
[4], 48.12 K, Crystal	–	42.05	–	–
[4], 52.7 K, Crystal	–	45.41	–	–
[4], 53.49 K, Crystal	–	46.07	–	–
[4], 57.63 K, Crystal	–	48.91	–	–
[4], 59.46 K, Crystal	–	50.14	–	–
[4], 63.45 K, Crystal	–	52.68	–	–
[4], 69.82 K, Crystal	–	56.56	–	–
[4], 76.91 K, Crystal	–	60.58	–	–
[4], 84.71 K, Crystal	–	64.9	–	–
[4], 93.41 K, Crystal	–	69.64	–	–
[4], 102.69 K, Crystal	–	74.69	–	–
[4], 112.24 K, Crystal	–	79.93	–	–
[4], 121.98 K, Crystal	–	85.34	–	–
[4], 131.78 K, Crystal	–	90.96	–	–
[4], 141.72 K, Crystal	–	96.78	–	–
[4], 148.27 K, Crystal	–	100.69	–	–
[4], 151.74 K, Crystal	–	102.79	–	–
[4], 157 K, Crystal	–	106	–	–
[4], 161.79 K, Crystal	–	108.99	–	–
[4], 166.83 K, Crystal	–	112.14	–	–
[4], 176.79 K, Crystal	–	118.44	–	–
[4], 186.88 K, Crystal	–	124.97	–	–
[4], 197.06 K, Crystal	–	131.7	–	–
[4], 207.29 K, Crystal	–	138.54	–	–
[4], 217.54 K, Crystal	–	145.45	–	–
[4], 227.79 K, Crystal	–	152.5	–	–
[4], 238.02 K, Crystal	–	159.59	–	–
[4], 248.23 K, Crystal	–	166.76	–	–
[4], 258.43 K, Crystal	–	173.9	–	–
[4], 268.62 K, Crystal	–	181.08	–	–
[4], 278.79 K, Crystal	–	188.12	–	–
[4], 288.98 K, Crystal	–	195.25	–	–
[4], 292.45 K, Crystal	–	197.59	–	–
[4], 299.09 K, Crystal	–	202.31	–	–
[4], 303.14 K, Crystal	–	205.11	–	–
[4], 315.26 K, Crystal	–	213.62	–	–
[4], 327.34 K, Crystal	–	221.93	–	–
[4], 339.58 K, Crystal	–	230.27	–	–
[4], 341.22 K, Crystal	–	231.31	–	–
[4], 351.33 K, Crystal	–	238.27	–	–
[4], 362.68 K, Crystal	–	245.89	–	–
[4], 375.17 K, Crystal	–	254.22	–	–
[4], 383.74 K, Crystal	–	259.84	–	–
[4], 387.73 K, Crystal	–	262.47	–	–
[4], 394.22 K, Crystal	–	266.7	–	–
[4], 400.35 K, Crystal	–	270.7	–	–
[4], 404.56 K, Crystal	–	273.47	–	–
[4], 413.04 K, Crystal	–	278.97	–	–
[4], 415.93 K, Crystal	–	280.86	–	–
[4], 426.29 K, Crystal	–	287.62	–	–
[4], 428.38 K, Crystal	–	288.92	–	–
[4], 438.38 K, Crystal	–	296.29	–	–
[4], 439.14 K, Crystal	–	296.66	–	–
[4], 453.29 K, Liquid	–	334.17	–	–
[4], 455.84 K, Liquid	–	335.26	–	–
[4], 456.63 K, Liquid	–	335.61	–	–
[4], 460.6 K, Liquid	–	337.14	–	–
[4], 461.49 K, Liquid	–	337.63	–	–
[4], 475.45 K, Liquid	–	343.31	–	–
[4], 490.19 K, Liquid	–	349.18	–	–
[4], 504.28 K, Liquid	–	354.75	–	–
[4], 510.36 K, Liquid	–	357.26	–	–
[4], 516.76 K, Liquid	–	359.48	–	–

Conditions	Molar enthalpy of transition or fusion [kcal/mol]
[2]	5.956
